Experimental data: PubChem BioAssay AID489035 (Sanford-Burnham Center for Chemical Genomics, 2010)
Calls of active or inactive are those of the source. How the calls were made is not given here.

The compounds below were run on Jurkat NF-kB reporter, TCR-induced, luciferase luminescence (assay: T-cell NF-kB luciferase reporter inhibition – Jurkat cells, luminescence, dose response (AID 489035)).

| SMILES | IC50 |
| --- | --- |
| Cn1cc(C(=O)N/N=C/c2c(O)ccc3ccccc23)ccc1=O | 1.89 µM |
| CCOC(=O)N=Nc1c2ccccc2c2nc3no[nH]c3nc12 | 0.73 µM |
| O=C(Nc1ccc(S(=O)(=O)Nc2ccc(F)cc2)cc1)c1ccc(CN2CCOCC2)cc1 | 40.8 µM (inactive) |
| CN(C)c1ccc(-[n+]2c(-c3ccccc3)cc(-c3ccccc3)cc2-c2ccccc2)cc1 | 7.96 µM |
| Cc1ccccc1NC1=C/C(=N\S(=O)(=O)c2cccs2)c2ccccc2C1=O | 1.25 µM |
| CCOC(=O)CSC1=C(C#N)C(c2ccc(C)s2)CC(=O)N1 (stereo not drawn) | > 80 µM (inactive) |
| COc1cc(-c2noc(C)c2/C=C/c2ccc(OC(C)=O)cc2)cc(OC)c1OC | 31.5 µM (inactive) |
| COc1ccc(NC(=O)/C(Cl)=C(/Cl)S(=O)Cc2ccc(Cl)cc2)cn1 (stereo not drawn) | 0.27 µM |
| CCCOCCOC(=O)c1[nH]c2c(c1C)C(=O)CC(c1cc(OC)ccc1OC)C2 (stereo not drawn) | > 80 µM (inactive) |
| Cc1nn(C)c(C)c1CN(Cc1nc(CCC(C)C)no1)C(C)C | > 80 µM (inactive) |
| COc1ccc(S(=O)(=O)Nc2cccc(-c3ccc4nncn4n3)c2)cc1F | > 80 µM (inactive) |
| Cc1noc(C)c1COc1cccc(C(=O)OCC(=O)N2CC(=O)Nc3ccccc32)c1 | > 80 µM (inactive) |
| CC(=O)c1ccc(Oc2cc(C)nc(-n3nc(C)cc3C)n2)cc1 | 13.5 µM |
| C/C=C(\C)C(=O)N[C@@H](c1ccccc1)[C@@H](O)C(=O)O[C@H]1C[C@@]2(O)[C@@H](OC(=O)c3ccccc3)C3[C@](C)(C(=O)[C@H](OC(C)=O)C(=C1C)C2(C)C)[C@@H](O)C[C@H]1OC[C@@]31OC(C)=O (stereo partly drawn) | < 0.16 µM |
| Oc1ccc(Nc2nc3ccccc3nc2Nc2ccc(O)cc2)cc1 | 2.09 µM |
| Cc1ccc(NC(=O)Nc2ccnc(-c3cccnc3)n2)cc1 | 0.84 µM |
| O=S(=O)(Nc1cccc2ncccc12)c1cccs1 | 0.89 µM |
| CC(=O)Nc1ccc(S(=O)(=O)N2c3ccc(F)cc3CCC2C)cc1 (stereo not drawn) | 7.46 µM |
| CC(C)(C)c1cc(C=C(C#N)C#N)cc(C(C)(C)C)c1O | > 80 µM (inactive) |
| COC(=O)Nc1ccc(S(=O)(=O)N2c3ccccc3CCC2C)cc1 (stereo not drawn) | 26.6 µM (inactive) |
| COc1ccccc1-c1nnc2n1N=C(c1ccc(O)c(O)c1)CS2 | 7.43 µM |
| COc1ccc(OC)c(-c2nnc3n2N=C(c2ccc(OC)c(OC4CCCC4)c2)CS3)c1 | 15.9 µM |
| Cc1cc(=O)oc2cc(OCC3CC(c4ccccc4Cl)=NO3)ccc12 (stereo not drawn) | > 80 µM (inactive) |
| COc1ccc(OC)c(NS(=O)(=O)c2ccc(N3CCCC3=O)cc2)c1 | > 80 µM (inactive) |
| COc1cc(NS(C)(=O)=O)ccc1Nc1c2ccccc2nc2ccccc12 | 9.5 µM |

| SMILES | IC50 |
| --- | --- |
| CCCCCCCCn1c2c(c(=N)c3c1CCC3)CCCC2 | 4.63 µM |
| O=c1cc(-c2ccccc2)[nH]c2cc(F)ccc12 | > 80 µM (inactive) |
| COc1ccccc1C(=O)N(CCC1CCCN1C)c1nc2ccccc2s1 (stereo not drawn) | 45.7 µM (inactive) |
| Cc1cccc(NS(=O)(=O)c2ccc(-c3cnc(C4CC4)o3)cc2)c1C | 27.6 µM (inactive) |
| C=C1C(=O)C=C2CN(C(=O)c3ccccc3)[C@@](Cc3ccc(F)cc3)(C(=O)OC)[C@@H]12 | 0.89 µM |
| CCOC(=O)c1[nH]c(C=O)c(C(=O)OCC)c1C | > 80 µM (inactive) |
| CCOC(=O)C(C)Oc1cccc2c(=O)n(CC(=O)NCc3ccc(F)cc3)ccc12 (stereo not drawn) | > 80 µM (inactive) |
| Cc1ccc(O)c(NC(=O)CCC2CCCCC2)c1 | > 80 µM (inactive) |
| CCN(CC)c1ccc(NC(=O)c2cc(OC)cc(OC)c2)c(C)c1 | > 80 µM (inactive) |
| COc1ccc(-c2c(C#N)c(N)nc3c2CCc2ccccc2-3)cc1OC | 53.6 µM (inactive) |
| O=C(Nc1ccc(S(=O)(=O)N2CCCCC2)cc1)c1ccc(CN2CCOCC2)cc1 | 16.6 µM |
| Cn1cc(/C=N/n2cnc3scc(-c4ccc(Cl)cc4)c3c2=O)c2ccccc21 | > 80 µM (inactive) |
| CCN(CC)S(=O)(=O)c1cc(NC(=O)CNc2cccc(S(=O)(=O)N3CCCC3)c2)ccc1C | > 80 µM (inactive) |
| CCOC(=O)c1[nH]c2c(c1C)C(=O)CC(c1ccco1)C2 (stereo not drawn) | > 80 µM (inactive) |
| O=C(c1ccccc1)c1nn(-c2ccc(Cl)cc2)c(=O)cc1C(F)(F)F | 1.25 µM |
| CCOC(=O)C1CCN(S(=O)(=O)c2c(Cl)ccc3nonc23)CC1 | 1.88 µM |
| CCN(c1ccccc1)S(=O)(=O)c1ccc(C(=O)NC2CCN(Cc3ccccc3)CC2)cc1 | 33 µM (inactive) |
| COc1ccc(C(=O)NNC(=O)c2ccccn2)cc1 | 1.93 µM |
| COc1ccc(C[C@H](N)C(=O)N[C@H]2[C@@H](O)[C@H](n3cnc4c(N(C)C)ncnc43)O[C@@H]2CO)cc1 | 0.96 µM |
| O=C(CSc1nnc(Cn2nnc3ccccc32)o1)N(Cc1ccc(F)cc1)c1ccccc1 | > 80 µM (inactive) |
| CC(C)Oc1ccccc1C1CC(=O)Nc2cc3c(cc21)OCCO3 (stereo not drawn) | > 80 µM (inactive) |
| Cc1ccc(-c2cc(-c3ccc(C)cc3)[n+](-c3ccccc3)c(-c3ccc(C)cc3)c2)cc1 | 6.13 µM |
| COC(=O)Nc1ccc(S(=O)(=O)N2CCCc3ccccc32)cc1 | > 80 µM (inactive) |
| COc1ccc(-c2csc(NC(=O)C3CCN(c4ncnc5sc(C)c(C)c45)CC3)n2)cc1OC | > 80 µM (inactive) |
| COc1cc(Cn2c(-c3nonc3N)nc3ccccc32)ccc1C | > 80 µM (inactive) |

| SMILES | IC50 |
| --- | --- |
| Cc1ccc(/C=N/NC(=O)C2COc3ccccc3O2)s1 (stereo not drawn) | > 80 µM (inactive) |
| COc1cccc(CN(C)C(=O)c2ccc(OCC(=O)Nc3cccc(C(F)(F)F)c3)c(OC)c2)c1 | 40.5 µM (inactive) |
| CCCCC(=O)NC(c1ccc(Cl)cc1)c1ccc2cccnc2c1O (stereo not drawn) | 8.39 µM |
| CCOC(=O)c1[nH]c2c(c1C)C(=O)CC(c1ccc(F)cc1)C2 (stereo not drawn) | > 80 µM (inactive) |
| Cc1ccc(S(=O)(=O)Cc2ccc(C(=O)N3CCN(c4cccc(C)c4C)CC3)o2)cc1 | 15.8 µM |
| COc1cc(C2C(C#N)=C(N)Oc3cc4c(cc32)OCO4)cc(OC)c1OC (stereo not drawn) | 34.1 µM (inactive) |
| Cc1nc(Sc2nnnn2C)c2c3c(sc2n1)CCC3 | 5.19 µM |
| O=C1C=C(c2ccc3ncccc3c2)C[C@@H](c2ccc3c(c2)OCO3)C1 | > 80 µM (inactive) |
| CCS(=O)(=O)c1ncc(Cl)c(C(=O)Nc2ccc(S(=O)(=O)N(C)c3ccccc3)cc2)n1 | 0.8 µM |
| C(=N\Nc1nc2ccccc2s1)/c1ccccn1 | 0.84 µM |
| Cc1cc(NC(=O)CSc2nc3c(sc4ccccc43)c(=O)n2CCCN2CCOCC2)n[nH]1 | > 80 µM (inactive) |
| CCOC(=O)COc1cccc2c(=O)n(CC(=O)NCc3ccccc3)ccc12 | > 80 µM (inactive) |
| Cc1ccc(NS(=O)(=O)c2ccc(-c3cnc(C4CC4)o3)cc2)c(C)c1 | 14.8 µM |
| COc1ccc(-[n+]2c(-c3ccccc3)cc(-c3ccc(C)cc3)cc2-c2ccccc2)cc1 | 4.95 µM |
| COc1ccccc1CNS(=O)(=O)c1ccc(-c2cnc(C3CC3)o2)cc1 | 31.3 µM (inactive) |
| Cc1oc2c(c1C(=O)NCc1cccnc1)C(=O)c1ccccc1C2=O | 1.1 µM |
| COC(=O)c1ccc(C)c(NS(=O)(=O)c2ccc3c(c2)OCCO3)c1 | > 80 µM (inactive) |
| O=C(N/N=C/c1ccccc1Cl)c1[nH]c2ccc(Br)cc2c1-c1ccccc1 | 6.27 µM |
| CCOc1ccc2c(c1)sc(N)[n+]2Cc1cc(C)cc2cccnc12 | 7.8 µM |
| COc1cc(NS(=O)(=O)c2ccc(OC)c(C)c2C)c(OC)cc1Cl | > 80 µM (inactive) |
| C/C(=N\NC(=O)c1cc(C)nc2ccccc12)c1ccccn1 | > 80 µM (inactive) |
| Cc1cccc(NS(=O)(=O)c2ccc(-c3cnc(C4CC4)o3)cc2)c1 | > 80 µM (inactive) |
| C[C@@H]1O[C@@H](O[C@H]2C[C@@H](O)[C@]3(CO)[C@@H]4C(CC[C@]3(O)C2)[C@@]2(O)CC[C@H](C3COC(=O)C3)[C@@]2(C)C[C@H]4O)[C@H](O)[C@H](O)[C@H]1O (stereo partly drawn) | 23.3 µM (inactive) |
| O=C(Nc1ccncc1)c1ccc(Cl)c(S(=O)(=O)N2CCc3ccccc32)c1 | > 80 µM (inactive) |
| C[C@]12CC[C@H]3[C@@H](CC[C@]4(O)C[C@@H](O)CC[C@]34C=O)[C@@]1(O)CC[C@@H]2C1=CC(=O)OC1 | 68.9 µM (inactive) |

| SMILES | IC50 |
| --- | --- |
| O=S(=O)(Nc1ccc(F)cc1Cl)c1ccc(-c2cnc(C3CC3)o2)cc1 | > 80 µM (inactive) |
| Cc1ccc(S(=O)(=O)NCc2ccncc2)c(C)c1C | > 80 µM (inactive) |
| CSc1nc(N(C)NC(=O)c2cccc(C)c2)c2ccccc2n1 | 27.8 µM (inactive) |
| c1ccc(-c2cccc(-c3ccccn3)n2)nc1 | 1.61 µM |
| Cc1[nH]n(-c2ccccc2)c(=O)c1/C=N/Nc1nncc(-c2ccccc2)n1 | 3.32 µM |
| CCOCCCNC(=O)c1ccc2c(c1)N=C(CC)c1cc(Br)ccc1S2 | 5.67 µM |
| O=C(N/N=C(\c1ccccc1)c1cccnc1)c1cccc(F)c1 | 5.3 µM |
| COc1cccc(/C=N/NC(=O)c2[nH]nc3c2CCc2ccccc2-3)c1O | 59.5 µM (inactive) |
| COc1cc2nc(NC(=O)c3ccco3)sc(=O)c2cc1OC | 0.47 µM |
| CC1=CC(C)(C)N(S(=O)(=O)c2ccc(C)cc2)c2cc(C)ccc21 | 6.77 µM |
| COC(=O)c1ccccc1NC1=C/C(=N\S(=O)(=O)c2cccs2)c2ccccc2C1=O | 2.91 µM |
| COc1ccccc1N1CCN(C(=O)C2c3ccccc3Oc3ccccc32)CC1 | 57.2 µM (inactive) |
| CCOc1ccccc1C(=O)Nc1ccc2nc(N3CCN(c4ncccn4)CC3)cc(C)c2c1 | 4.28 µM |
| CCOc1cccc(/C=N/Nc2ccc(S(=O)(=O)N(CC)CC)cn2)c1O | 21.8 µM (inactive) |
| CCC/C(O)=C1\C(=O)CC(C)(C)CC1=Nc1ccc(OC)cc1OC | > 80 µM (inactive) |
| CCn1c(C)cc(C(=O)CN2C(=O)c3ccccc3S2(=O)=O)c1C | 1.68 µM |
| CCCCCCCOc1ccc(OC(=O)c2ccncc2)cc1 | > 80 µM (inactive) |
| CCCOc1ccccc1C1CC(=O)Nc2cc3c(cc21)OCO3 (stereo not drawn) | > 80 µM (inactive) |
| Cc1ccc2cccc(NS(=O)(=O)c3ccccc3)c2n1 | 0.98 µM |
| CCc1cc(C(=O)NC2CCCc3c2cnn3-c2cccc(C)c2C)n(C)n1 (stereo not drawn) | > 80 µM (inactive) |
| CCOc1cccc(-c2nnc3n2N=C(c2cc(OC)ccc2OC)CS3)c1 | > 80 µM (inactive) |
| COc1ccc(/C=N\NC(=O)c2ccccc2F)cc1COc1ccc(F)cc1F | > 80 µM (inactive) |
| CCN(CC)c1ccc(/C=N/NC(=O)c2cccc(S(=O)(=O)Nc3ccccc3OC)c2)c(O)c1 | 3.37 µM |
